Results reported in publication PMC12814185, “Receptor-Mediated Shuttling of a D‑Amino Acid Peptide Achieves High Nanomolar Cytosolic Concentrations” (Journal of the American Chemical Society, 2025).
Where a SMILES comes first, the peptide text is derived from it. Bridges are numbered along the chain shown (N, C = ends). Roman numbers before positions name the chains, in order. Triazole bridges read from a SMILES are 1,4-linked. Where no end group is shown, it is not given here. Side-chain parts run from the residue outwards. [ ]: non-standard residue; d: D form. The star is where a group is joined. X2 = CN1C(=C/C=C/C=C/C2=[N+](CCCCCC(=O)*)c3ccc(S(=O)(=O)[O-])cc3C2(C)C)C(C)(C)c2cc(S(=O)(=O)O)ccc21; X1 = CN1C(=CC=CC=CC2=[N+](CCCCCC(=O)*)c3ccc(S(=O)(=O)[O-])cc3C2(C)C)C(C)(C)c2cc(S(=O)(=O)O)ccc21; Lys(N3) = [N-]=[N+]=NCCCC[C@H](N)C(=O)O; Cit = NC(=O)NCCC[C@H](N)C(=O)O; d(hCys) = N[C@H](CCS)C(=O)O; PEG3 = NCCOCCOCCOCCC(=O)O; Pra = C#CC[C@H](N)C(=O)O

Columns and labels:
[1] = biological target: T1, recombinant human GST-MDM2 (Homo sapiens, UniProt Q00987); test: Fluorescence polarization binding of Cy5-labeled peptides to MDM2; conditions: 20 nM Cy5-labeled peptide, FP buffer pH 7.4, 30 min room temperature; performed twice in technical triplicates
T1 construct: purchased R&D Systems
Method: (B) Fluorescence polarization measurement of 20 nM Cy5-labeled peptides binding to recombinant human GST-MDM2.
20 nM of Cy5-labeled peptides were added to dilutions of human MDM2 (Recombinant Human GST -
MDM2/HDM2, R&D Systems) in FP buffer (50 mM tris(hydroxymethyl)aminomethane (Tris, Carl Roth),
150 mM sodium chloride (Sigma), 1 mM EDTA (Sigma), 0.01% (v/v) Tween20 (Sigma), pH 7.4) and
incubated for 30 min at room temperature. Fluorescence polarization was then measured in a Tecan
Spark plate reader (λex = 640 nm, λem = 670 nm). Measurements were performed twice in technical
triplicates. Data was then fit with Prism 10 (GraphPad) using non-linear regression with the following
solution to the quadratic binding equation 1 to obtain Kd:
𝐹𝑃 = 𝐹𝑃 + (𝐹𝑃 − 𝐹𝑃 ) ∗ 𝑐 + 𝑐 + 𝐾 − 𝑝𝑒𝑝𝑡𝑖𝑑𝑒 𝑀𝐷𝑀2 𝑑 𝑝𝑒𝑝𝑡𝑖𝑑𝑒 𝑀𝐷𝑀2

MDA-MB-231 cells = test: Fluorescence correlation spectroscopy (FCS) in the cytosol; type: cell-based; conditions: 72 h
Text: Fluorescence correlation spectroscopy (FCS) […] Prior to measurements, the correction collar of the objective […] 1 τ 1 1 (Equation 2) G(τ) = ∗ (1 - […] 1 + ( τ )α √1 + S2 ∗ ( τ )α τD τD 4

[2] = biological target: T2, NanoLuc-MDM2 in HEK293_CMKLR1-eYFP cells (Homo sapiens, UniProt Q00987); test: Intracellular Cy5-PMIγ/NanoLuc-MDM2 BRET, cells with CMKLR1; type: cell-based; conditions: for displacement from MDM2 by 10 μM nutlin-3a (kinetic BRET): 72 h internalization; for BRET between NanoLuc-MDM2 and Cy5-labeled peptide: CMKLR1-expressing cells, 1 or 10 μM; for receptor-specific BRET under uptake competition: coincubation with 30 μM unlabeled peptide 1
T2 construct: host or cells: HEK293 and HEK293_CMKLR1-eYFP
Method: (§1) 4 Intracellular bioluminescence resonance energy transfer (BRET) between NanoLuc-MDM2 and Cy5-labeled PMIγ in living cells. (A) Peptides were incubated on HEK293 and HEK293_CMKLR1-eYFP cells for 72 h before BRET was measured. To evaluate the receptor-specific effect, ΔBRET was calculated by subtracting netBRET of cells without CMKLR from netBRET from cells with CMKLR1. Mean ± SEM from three independent experiments performed in duplicate. […] (B) Calculated ΔBRET values after different incubation times of peptides on the cells. (C, D) Same as panels (A) and (B), but peptide uptake was competed by coincubation with 30 μM peptide 1 (N3-cC9). (E, F) Displacement of PMIγ peptides from MDM2 after 72 h internalization in a kinetic BRET measurement. After 3 min, 10 μM of the small molecule MDM2 antagonist Nutlin-3a was added and the loss of NanoLuc-MDM2/Cy5-PMIγ BRET was observed. Mean (bold line) ± SEM (dotted lines) from three independent experiments is shown. […]
Intracellular Cy5-PMIγ/NanoLuc-MDM2 bioluminescence resonance energy transfer […]
HEK293 and stably transfected HEK293_CMKLR1-eYFP cells were seeded at 15,000 cells per well into poly-ᴅ-lysine coated 96-well plates (white Nunc MicroWell, Thermo). The next day, cells in each well were transfected with 0.1 µg Transfection Carrier DNA (Promega) and 0.001 µg NanoLuc-MDM2 fusion vector (Promega) using Lipofectamine 3000 (Invitrogen) according to manufactures instructions. Cells were incubated overnight, washed, allowed to recover for 4 h, washed again and dilutions of the Cy5-labeled peptides were added to the cells and incubated for 24,48 or 72 h. For uptake competition experiments, 30 µM of the unlabeled peptide 1 (N3-cC9) were additionally added to each well. After the incubation, excess peptide was washed away thoroughly, and cells were incubated for 4 h before the cell culture medium was replaced by 50 µl Fluorobrite DMEM with Nano-Glo Live Cell Reagent (Promega). After 10 min incubation, luminescence was measured in a Spark multimode plate reader (Tecan), and BRET ratio was calculated by […]
dividing the Cy5-signal (670±30 nm) by the NanoLuc signal (450±20 nm). netBRET was calculated by subtracting the BRET ratio from cells which were incubated without peptide. To calculate the CMKLR1-specific effect, ΔBRET was calculated by subtracting the netBRET value obtained in cells without CMKLR1 from netBRET obtained in cells with CMKLR1. After the initial readout, a kinetic BRET displacement was performed with the same cells. For this, luminescence was measured every 22 s. After 3 min, 10 µM of the small molecule MDM2 antagonist Nutlin-3a (Sigma) was added to the cells and BRET was measured for another 7 min. Experiments were performed in technical duplicates and three independent times. Non-linear regression and statistical analysis were performed using Prism 10 (GraphPad).
Analogous to the intracellular Cy5-PMIγ/NanoLuc-MDM2 BRET experiment, HEK293 and HEK293_CMKLR1-eYFP cells were seeded and transfected with 0.09 µg Transfection Carrier DNA, 0.01 µg […]
were then incubated with dilutions of unlabeled PMIγ -peptides for 72 h or with Nutlin-3a for 24 h. During the last 30 min of the incubation, HaloTag TMR Ligand (Promega) was added to the cells to fluorescently label the p53-HaloTag fusion proteins in the cells. Cells were then washed thoroughly, incubated for 4 h in full cell culture medium without peptides, and the cell culture medium was then replaced by 50 µl Fluorobrite DMEM with Nano-Glo Live Cell Reagent. After 10 min incubation, luminescence was measured, and BRET ratio was calculated by dividing the TMR-signal (600±50 nm) by the NanoLuc signal (450±20 nm). netBRET was calculated and normalized to cells without peptide (100%) and cells which were not label ed with HaloTag TMR Ligand (0%). Experiments were performed in technical duplicates and at least twice. Non-linear regression and statistical analysis were performed using Prism 10 (GraphPad).

[3] = biological target: T3, NanoLuc-MDM2 in HEK293 cells (Homo sapiens, UniProt Q00987); test: Intracellular Cy5-PMIγ/NanoLuc-MDM2 BRET, cells without CMKLR1; type: cell-based; conditions: cells without CMKLR1, 72 h
T3 construct: host or cells: HEK293 and HEK293_CMKLR1-eYFP
Method: as §1, with “(N3-cC9).” for “(N3-cC9). (E, F) Displacement of PMIγ peptides from MDM2 after 72 h internalization in a kinetic BRET measurement. After 3 min, 10 μM of the small molecule MDM2 antagonist Nutlin-3a was added and the loss of NanoLuc-MDM2/Cy5-PMIγ BRET was observed. Mean (bold line) ± SEM (dotted lines) from three independent experiments is shown.”
HEK293 and stably transfected HEK293_CMKLR1-eYFP cells were seeded at 15,000 cells per well into poly-ᴅ-lysine coated 96-well plates (white Nunc MicroWell, Thermo). […] After 10 min incubation, luminescence was measured in a Spark multimode plate reader (Tecan), and BRET ratio was calculated by […]
dividing the Cy5-signal (670±30 nm) by the NanoLuc signal (450±20 nm). netBRET was calculated by subtracting the BRET ratio from cells which were incubated without peptide. To calculate the CMKLR1-specific effect, ΔBRET was calculated by subtracting the netBRET value obtained in cells without CMKLR1 from netBRET obtained in cells with CMKLR1. After the initial readout, a kinetic BRET displacement was performed with the same cells. […]

T2 sequence (Q00987 whole entry): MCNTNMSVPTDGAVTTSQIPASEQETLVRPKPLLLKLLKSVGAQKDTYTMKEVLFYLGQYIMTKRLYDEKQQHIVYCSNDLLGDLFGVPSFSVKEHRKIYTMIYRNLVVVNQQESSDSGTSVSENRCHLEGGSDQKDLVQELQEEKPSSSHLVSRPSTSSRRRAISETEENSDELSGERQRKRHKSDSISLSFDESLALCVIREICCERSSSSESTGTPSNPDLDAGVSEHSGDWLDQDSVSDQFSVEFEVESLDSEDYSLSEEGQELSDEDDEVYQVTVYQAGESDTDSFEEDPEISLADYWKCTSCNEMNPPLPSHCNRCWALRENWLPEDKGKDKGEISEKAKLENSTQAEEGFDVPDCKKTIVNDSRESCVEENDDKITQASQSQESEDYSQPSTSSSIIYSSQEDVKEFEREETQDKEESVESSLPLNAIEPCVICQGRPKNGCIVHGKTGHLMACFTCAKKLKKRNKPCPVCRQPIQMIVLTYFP
T3 sequence (Q00987 whole entry): as above
T1 sequence (Q00987 whole entry): as above

Molecule	Kd [1] [nM]	cytosolic FCS measurement (MDA-MB-231 cells)	loss of BRET after 10 μM nutlin-3a, compared with 2Cy ([2]; 1 μM extracellular peptide, 72 h)	displacement from MDM2 by 10 μM nutlin-3a (kinetic BRET) ([2]; 1 μM extracellular peptide)	ΔBRET (netBRET with CMKLR1 minus without) ([2]; 24, 48 and 72 h)	BRET between NanoLuc-MDM2 and Cy5-labeled peptide ([2]; 72 h)	receptor-specific BRET under uptake competition [2]	BRET between NanoLuc-MDM2 and Cy5-labeled peptide [3]
I: GSVSHHHHHHGGHHHH[PEG3][dK]([PEG3-X1])[dD][dW][dW][dP][dL][dA][dF][dE][dA][dL][dL][dR]GEV[Cit][PEG3][Pra]-NH2 / II: Ac-[Lys(N3)]YFP[d(hCys)]QFAFC-OH (triazole I:36-II:1; disulfide II:5-II:10) [3Cy]	90	no successful measurements were obtained	larger loss of BRET	seen only in CMKLR1-expressing cells	slightly higher signal compared to 2Cy	significantly elevated BRET	almost no receptor-specific BRET was detected	strong BRET at 10 μM
CC(=O)N[C@@H](CCCCn1cc(C[C@H](NC(=O)CCOCCOCCOCCNC(=O)[C@H](CCCNC(N)=O)NC(=O)[C@@H](NC(=O)[C@H](CCC(=O)O)NC(=O)CNC(=O)CNC(=O)[C@@H](CCCNC(=N)N)NC(=O)[C@@H](CC(C)C)NC(=O)[C@@H](CC(C)C)NC(=O)[C@@H](C)NC(=O)[C@@H](CCC(=O)O)NC(=O)[C@@H](Cc2ccccc2)NC(=O)[C@@H](C)NC(=O)[C@@H](CC(C)C)NC(=O)[C@H]2CCCN2C(=O)[C@@H](Cc2c[nH]c3ccccc23)NC(=O)[C@@H](Cc2c[nH]c3ccccc23)NC(=O)[C@@H](CC(=O)O)NC(=O)CCOCCOCCOCCNC(=O)CCCCC[N+]2=C(/C=C/C=C/C=C3N(C)c4ccc(S(=O)(=O)O)cc4C3(C)C)C(C)(C)c3cc(S(=O)(=O)[O-])ccc32)C(C)C)C(N)=O)nn1)C(=O)N[C@@H](Cc1ccc(O)cc1)C(=O)N[C@@H](Cc1ccccc1)C(=O)N1CCC[C@H]1C(=O)N[C@@H]1CCSSC[C@@H](C(=O)O)NC(=O)[C@H](Cc2ccccc2)NC(=O)[C@H](C)NC(=O)[C@H](Cc2ccccc2)NC(=O)[C@H](CCC(N)=O)NC1=O [2Cy] (I: {X2-PEG3}-[dD][dW][dW][dP][dL][dA][dF][dE][dA][dL][dL][dR]GGEV[Cit][PEG3][Pra]-NH2 / II: Ac-[Lys(N3)]YFP[d(hCys)]QFAFC-OH; triazole I:19-II:1; disulfide II:5-II:10)	–	no successful measurements were obtained	–	seen only in CMKLR1-expressing cells	–	significantly elevated BRET	almost no receptor-specific BRET was detected	only a minor signal
